Data: patent US9969699B2, “Cancer cell growth inhibitor, anticancer agent, and method for screening same, as well as novel compound” (Microbial Chemistry Research Foundation, priority 2014, dated 2018)
pIC50: −log10 of the molar value.

How the values were obtained:
[1] = test system: U87MG cells; experiment: 3D cell culture step, EGFR vIII gene non-expressing brain tumor cells U87MG; format: cell-based; conditions: Test Example 3, U87MG cells
Description: (§1) The following 3 brain tumor cells were used as the EGFR vIII gene non-expressing cells. • U251 cells (available from ATCC) • U87MG cells (available from ATCC) • KS-1 cells (available from ATCC) <3D Cell Culture Step>
(§2) After the 3 days of culture, the number of viable cells was counted by […]-GLO (trademark) Luminescent Cell Viability Assay (available from Promega), which was a method for quantitating ATP in viable cells. A cell proliferation inhibition rate in the 3D cell culture step was calculated according to (Expression 3) below. Cell proliferation inhibition rate(%)=(1−X/Y)×100 (Expression 3)
(§3) In the (Expression 3), X denotes the number of viable cells when the test substance was added, and Y denotes the number of viable cells when the test substance was not added.

[2] = test system: U251 cells; experiment: 3D cell culture step, EGFR vIII gene non-expressing brain tumor cells U251; format: cell-based; conditions: Test Example 3, U251 cells
Description: as §1, §2, §3

[3] = test system: KS-1 cells; experiment: 3D cell culture step, EGFR vIII gene non-expressing brain tumor cells KS-1; format: cell-based; conditions: Test Example 3, KS-1 cells
Description: as §1, §2, §3

[4] = test system: NIH3T3 cells; experiment: 2D cell culture step (environment with adhesion scaffold), proliferation of NIH3T3 cells; format: cell-based; conditions: Mus musculus, 72 h; NIH3T3 cells, TC-treated plate, 3 days, […]-GLO; read-out: IC50 2D cell culture step
Description: Note that, as a negative control, the NIH3T3 cells at 2×10^3 cells/100 were seeded to the same plate in a volume of 100 μL per well and cultured at 37° C. in the presence of 5% CO2 for 3 days without the addition of the test substance.
Note that, Dulbecco's Modified Eagle Medium supplemented with 5% FBS was used for the culture.
A cell proliferation inhibition rate in the 2D cell culture step was calculated according to (Expression 2) below. Cell proliferation inhibition rate(%)=(1−D/E)×100 (Expression 2)
In the (Expression 2), D denotes the number of viable NIH3T3 cells when the test substance was added, and E denotes the number of viable NIH3T3 cells when the test substance was not added.

[5] = test system: NIH3T3/EGFRWT cells; experiment: 3D cell culture step, NIH3T3/EGFRWT cells in EGF-including medium; format: cell-based, mouse; conditions: Test Example 3, NIH3T3/EGFRWT cells, EGF-including medium
Description: as §2, §3

[6] = test system: NIH3T3/EGFR vIII cells; experiment: 3D cell culture step (environment without adhesion scaffold), proliferation of NIH3T3/EGFR vIII cells; format: cell-based, mouse

COc1cc2ncnc(Nc3cccc(Cl)c3)c2cc1OC [AG1478, reference compound]
inhibiting activity against scaffold-independent proliferation capacity [1]: did not exhibit an inhibiting activity
inhibiting activity against scaffold-independent proliferation capacity [2]: did not exhibit an inhibiting activity
inhibiting activity against scaffold-independent proliferation capacity [3]: did not exhibit an inhibiting activity
pIC50 [4]: 4.30
inhibiting activity against scaffold-independent proliferation capacity [5]: exhibited an inhibiting activity
pIC50 ([6]; Mus musculus, 72 h, NIH3T3/EGFR vIII cells, Ultra Low Attachment plate, 3 days, […]-GLO): 6.00
inhibiting activity against scaffold-independent proliferation capacity ([6]; Test Example 3, NIH3T3/EGFR vIII cells): exhibited an inhibiting activity
inhibition of proliferation of NIH3T3 cells expressing EGFR mutant vIII in the 3D cell culture step ([6]; result in words from Table 1): inhibited proliferation
